Results as given in patent publication US5770573A, “CS-1 peptidomimetics, compositions and methods of using the same” (Cytel Corporation, priority 1995, dated 1998).
Square brackets hold non-standard residues; d marks the D form. Peptide text beside a SMILES is read from it. * marks the point of attachment. ξ: configuration not given here. Cha = N[C@@H](CC1CCCCC1)C(=O)O; Isonicotinoyl = O=C(c1ccncc1)*; ξAtc = NC1(C(=O)O)CCc2ccccc2C1; NMeL = CN[C@@H](CC(C)C)C(=O)O; Nle = CCCC[C@H](N)C(=O)O; X7 = O=C(CO*)OCc1ccccc1; PhAc = O=C(Cc1ccccc1)*; Inp = O=C(O)C1CCNCC1; NHBn = c1ccc(CN*)cc1; X4 = CCN(CC)C(=O)CO*; OBn = c1ccc(CO*)cc1

Target: VLA-4 (Homo sapiens, UniProt P05556+P13612)
Sequence (P13612 34-1032): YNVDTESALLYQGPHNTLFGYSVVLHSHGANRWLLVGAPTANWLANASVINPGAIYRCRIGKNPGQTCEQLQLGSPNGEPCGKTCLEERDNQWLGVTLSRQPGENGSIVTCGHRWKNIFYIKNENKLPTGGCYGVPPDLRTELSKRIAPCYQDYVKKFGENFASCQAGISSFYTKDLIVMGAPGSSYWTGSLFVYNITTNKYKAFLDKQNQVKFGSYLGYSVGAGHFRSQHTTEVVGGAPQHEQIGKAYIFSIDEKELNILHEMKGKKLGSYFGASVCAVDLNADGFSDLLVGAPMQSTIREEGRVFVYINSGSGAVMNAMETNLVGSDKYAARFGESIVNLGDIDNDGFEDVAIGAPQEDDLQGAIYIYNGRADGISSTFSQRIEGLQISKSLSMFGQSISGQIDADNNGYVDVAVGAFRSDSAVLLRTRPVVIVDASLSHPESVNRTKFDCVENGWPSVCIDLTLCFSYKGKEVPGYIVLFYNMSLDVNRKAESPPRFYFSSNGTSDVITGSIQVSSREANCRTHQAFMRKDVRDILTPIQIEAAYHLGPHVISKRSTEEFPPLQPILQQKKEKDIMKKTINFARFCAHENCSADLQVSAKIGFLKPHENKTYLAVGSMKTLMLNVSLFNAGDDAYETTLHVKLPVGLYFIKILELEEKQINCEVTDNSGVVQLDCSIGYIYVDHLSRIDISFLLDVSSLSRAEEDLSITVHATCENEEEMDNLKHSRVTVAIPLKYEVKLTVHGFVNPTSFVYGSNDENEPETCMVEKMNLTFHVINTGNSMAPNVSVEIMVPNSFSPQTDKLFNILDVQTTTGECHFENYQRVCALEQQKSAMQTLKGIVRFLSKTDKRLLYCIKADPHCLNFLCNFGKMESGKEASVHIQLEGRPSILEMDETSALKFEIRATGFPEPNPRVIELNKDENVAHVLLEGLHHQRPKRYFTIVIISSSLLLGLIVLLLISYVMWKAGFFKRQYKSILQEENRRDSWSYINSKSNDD
Sequence (P05556 21-798): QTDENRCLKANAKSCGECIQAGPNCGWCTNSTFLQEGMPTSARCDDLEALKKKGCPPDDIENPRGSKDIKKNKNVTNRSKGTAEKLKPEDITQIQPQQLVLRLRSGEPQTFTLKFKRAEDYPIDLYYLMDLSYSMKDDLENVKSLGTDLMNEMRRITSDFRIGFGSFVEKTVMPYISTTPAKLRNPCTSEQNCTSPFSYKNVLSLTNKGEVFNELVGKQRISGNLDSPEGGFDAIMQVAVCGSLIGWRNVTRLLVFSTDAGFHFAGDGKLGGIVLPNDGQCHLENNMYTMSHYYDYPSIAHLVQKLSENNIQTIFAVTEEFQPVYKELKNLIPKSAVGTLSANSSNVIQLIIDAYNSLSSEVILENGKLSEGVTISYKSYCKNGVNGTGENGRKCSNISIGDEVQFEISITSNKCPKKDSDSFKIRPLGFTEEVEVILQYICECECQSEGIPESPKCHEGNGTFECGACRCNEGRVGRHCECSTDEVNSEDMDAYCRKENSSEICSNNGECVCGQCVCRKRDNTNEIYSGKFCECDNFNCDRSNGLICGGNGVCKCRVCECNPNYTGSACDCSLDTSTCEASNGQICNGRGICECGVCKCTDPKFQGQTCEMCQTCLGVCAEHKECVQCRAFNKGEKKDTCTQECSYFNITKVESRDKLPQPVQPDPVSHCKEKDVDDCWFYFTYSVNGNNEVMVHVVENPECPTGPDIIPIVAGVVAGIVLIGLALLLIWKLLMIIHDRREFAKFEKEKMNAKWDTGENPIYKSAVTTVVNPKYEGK
Assay: In vitro binding inhibition of 51Cr-labeled Jurkat cells to solid phase-bound CS-1 compound (SEQ ID NO:1)
Format: cell-based
Design: inflammatory cells that contain the VLA-4 receptor [Jurkat cells; host or cells: Jurkat (human T lymphoblastic line)
Conditions: not given
Experimental: Binding inhibition is measured here as a concentration of compound that inhibits one-half the binding between a standard number of Jurkat cells and a standard amount of CS-1 compound bound to the surface of a microtiter plate well. Those concentrations are conveniently expressed as IC50 values, smaller numbers indicating a lower concentration required to inhibit 50 percent binding and therefore greater potency. Further specifics of this assay are provided hereinafter.
Jurkat cells (ATCC TIB 152), a human T lymphoblastic line, labeled with ^51 chromium were used to assay in vitro binding inhibition provided by various compounds discussed herein.
The plates were prepared as follows: The 25-mer CS-1 compound (SEQ ID NO:1) dissolved at 0.5-1 μg/ml in a buffer of 0.1M NaHCO3 at pH 9.5 that also contained 10 μg/ml of bovine serum albumin (BSA) or a conjugate of the CS-1 compound linked to […] (CS-1-OVA) dissolved at 1-2.5 μg/ml in the same buffer was used as the substrate. Each well of the microtiter plates was coated with 50 μl of substrate or buffer alone for controls. The wells were permitted to dry out completely and were then rinsed twice with PBS at pH 7.4. Non-specific binding sites of each well were then blocked using 200 μl per well of RPMI/1 percent BSA for two hours at room temperature.
Jurkat cells (3-5×10^6 cells) were placed into a 15 ml Falcon™ round-bottom tube with a cap. The tube was centrifuged, and the extra medium was then removed.
Two hundred microliters of a ^51 Cr labeling solution were added to the centrifuged cells and maintained in contact with the cells for 90-120 minutes in a warm room. […] Longer contact times provide a greater amount of labeling but lower cell viability.
The labeled cells are washed with (i) complete medium, (ii) 1 mM EDTA/PBS and then (iii) RPM1/1 percent BSA free of serum components. The cells are centrifuged after each washing. The cells are finally resuspended in serum-free RPMI/1 percent BSA at a concentration of 1×10^6 viable cells/ml, which provides a concentration that is diluted by one-half in the assay.
Inhibitor compounds are prepared as stock solutions at 20 mg/ml in DMSO in 1.5 ml cryogenic screwcap vials, and were stored at -70° C. Using Flow™ round-bottom or V-bottom microtiter plates, the inhibitor compounds were prepared at twice the assay concentration in RPMI/1 percent BSA at 60 μl/well.
Four initial dilutions were typically used.
The ^51 Cr-labeled cells ([…] at 60 μl/well) were then admixed with the diluted compound solutions. The admixtures were maintained at room temperature (about 22° C.) for 30 minutes.
One hundred microliters of each inhibitor compound/cell admixture were transferred to the substrate-coated wells. This was done in triplicate for each dilution. The resulting plates were incubated for 30 minutes at 37° C. and then washed gently three times with RPMI/1 percent BSA at 200 μl/well. Binding was observed microscopically, particularly after the second wash.
The bound cells were then lysed by the addition of a 0.5 percent solution of sodium dodecylsulfate in water at 100 μl/well. The resulting solutions were then processed for counting and calculation of IC50 values following usual procedures.
The data of Table 1 are normalized to the binding of SEQ ID NO: 3. […] Multiple assays for the same compound were averaged.

Compared with CC[C@H](C)[C@H](N)C(=O)N[C@@H](CC(C)C)C(=O)N[C@@H](CC(=O)O)C(=O)N[C@H](C(=O)N1CCC[C@H]1C(N)=O)C(C)C [886.03], CC[C@H](C)[C@H](N)C(=O)N[C@@H](CC(C)C)C(=O)N[C@@H](CC(=O)O)C(=O)N[C@H](C(=O)N1CCC[C@@H]1C(N)=O)C(C)C [886.10] is higher in “Relative Potency” value: 1.55 for the first, 5.38 for the second.

CC(C)=CCCC(C)CC(=O)N[C@@H](CC(=O)O)C(=O)N[C@@H](Cc1ccccc1)C(=O)N1CCC[C@@H]1C(N)=O (some centres unmarked) [1056.10] and COc1ccc(CCCC(=O)N[C@@H](CC(=O)O)C(=O)N[C@@H](Cc2ccccc2)C(=O)N2CCC[C@@H]2C(N)=O)cc1OC [1056.02] are the same in “Relative Potency” value: 0 for the first, 0 for the second.

First: CC(C)C[C@@H]1NC(=O)N([C@@H](CC(=O)O)C(=O)N[C@@H](Cc2ccccc2)C(=O)N2CCCCC2)C1=O [1047.05]
Second: CC(C)C[C@@H](C(=O)N[C@@H](CC(=O)O)C(=O)N[C@@H](Cc1ccccc1)C(=O)N1CCC[C@@H]1C(N)=O)n1c(=O)[nH]c2ccccc2c1=O [896.63]
The “Relative Potency” value of the first is lower: 12.5 for the first, 43.7 for the second.

Going from Cc1cccc(C(=O)N[C@@H](CC(C)C)C(=O)N[C@@H](CC(=O)O)C(=O)N[C@H](C(=O)N2CCC[C@@H]2C(N)=O)C(C)C)c1C [896.38] to CC(C)C[C@H](NC(=O)c1cccnc1)C(=O)N[C@@H](CC(=O)O)C(=O)N[C@H](C(=O)N1CCC[C@@H]1C(N)=O)C(C)C [896.42], the “Relative Potency” value rises from 6.57 to 38.1.

Going from CC(C)C[C@H](NC(=O)c1ccncc1)C(=O)N[C@@H](CC(=O)O)C(=O)N[C@@H](Cc1ccccc1)C(=O)N1CCC[C@@H]1C(N)=O [951.20] (Isonicotinoyl-LDF[dP]-NH2) to CC(C)CC(C(=O)NCc1ccccc1)C(=O)N[C@@H](CC(=O)O)C(=O)N[C@@H](Cc1ccccc1)C(=O)N1CCC[C@@H]1C(N)=O (some centres unmarked) [1034.01], the “Relative Potency” value falls from 228 to 1.96.

Going from CC(C)CCC(=O)N[C@@H](CC(C)C)C(=O)N[C@@H](CC(=O)O)C(=O)N[C@H](C(=O)N1CCC[C@@H]1C(N)=O)C(C)C [896.47] to CC(C)C[C@H](NC(=O)CC1CCCCC1)C(=O)N[C@@H](CC(=O)O)C(=O)N[C@H](C(=O)N1CCC[C@@H]1C(N)=O)C(C)C [896.48], the “Relative Potency” value falls from 5.01 to 3.76.

NC(=O)[C@H]1CCCN1C(=O)[C@H](Cc1ccccc1)NC(=O)[C@H](CC(=O)O)NC(=O)c1cc2cc(O)ccc2cc1O [1056.05] and NC(=O)[C@H]1CCCN1C(=O)[C@H](Cc1ccccc1)NC(=O)[C@H](CC(=O)O)NC(=O)CC12CC3CC(CC(C3)C1)C2 [1056.13] are the same in “Relative Potency” value: 0 for the first, 0 for the second.

With CC[C@H](C)[C@H](N)C(=O)N[C@@H](CC1CCCCC1)C(=O)N[C@@H](CC(=O)O)C(=O)N[C@@H](Cc1ccccc1)C(=O)N1CCC[C@@H]1C(N)=O [896.29] (H-I[Cha]DF[dP]-NH2) the “Relative Potency” value was 2.27.

NC(=O)[C@H]1CCCN1C(=O)[C@H](Cc1ccccc1)NC(=O)[C@H](CC(=O)O)NC(=O)CCCCc1ccccc1 [1056.04] was tested, and the “Relative Potency” value was “.2”.
For CC[C@H](C)[C@H](N)C(=O)N[C@@H](CC(C)C)C(=O)N[C@@H](CC(=O)O)C(=O)N[C@@H](CCSC)C(=O)N1CCC[C@H]1C(N)=O [926.13] (H-ILDMP-NH2), the “Relative Potency” value was “.3”.
For CC[C@H](C)[C@H](N)C(=O)N(C)[C@@H](CC(C)C)C(=O)N[C@@H](CC(=O)O)C(=O)N[C@H](C(=O)N1CCC[C@H]1C(N)=O)C(C)C [926.11] (H-I[NMeL]DVP-NH2), the “Relative Potency” value was “.06”.
With CC(C)CC(CCCc1ccccc1)C(=O)N[C@@H](CC(=O)O)C(=O)N[C@@H](Cc1ccccc1)C(=O)N1CCC[C@@H]1C(N)=O (some centres unmarked) [1056.14] the “Relative Potency” value was “.25”.
In the case of CCCC[C@H](NC(=O)[C@H](CC(=O)O)NC(=O)[C@H](CC(C)C)NC(=O)[C@@H](N)[C@@H](C)CC)C(=O)N1CCC[C@H]1C(N)=O [926.15] (H-ILD[Nle]P-NH2), the “Relative Potency” value is reported as “.08”.

Same assay, conditions: binding inhibition potency relative to standard compound of SEQ ID NO:3 = 1 (normalized IC50); about one-tenth or less assigned zero

Going from CC(C)C[C@H](NC(=O)Cc1ccccc1)C(=O)N[C@@H](CC(=O)O)C(=O)N[C@@H](Cc1ccccc1)C(=O)NCCCO [1051.05] to CC(C)C[C@H](NC(=O)Cc1ccccc1)C(=O)N[C@@H](CC(=O)O)C(=O)NCc1ccccc1 [997.02] (PhAc-Leu-Asp-NHBn), the “Relative Potency” value falls from 25 to 18.8.

Going from COc1ccccc1N1CC[C@H](NC(=O)[C@H](CC(=O)O)NC(=O)[C@H](CC(C)C)NC(=O)Cc2ccccc2)C1=O [1057.04] to CC(C)C[C@H](NC(=O)Cc1ccccc1)C(=O)N[C@@H](CC(=O)O)C(=O)N[C@@H]1CCN(C2CCCCC2)C1=O [1057.03], the “Relative Potency” value rises from 3.13 to 3.44.

Going from CC(C)C[C@H](NC(=O)Cc1ccccc1)C(=O)N[C@@H](CC(=O)O)C(=O)N[C@@H](Cc1ccccc1)C(=O)N1CCN(CCC(=O)O)CC1 [1190.03] to CC(C)C[C@H](NC(=O)Cc1ccccc1)C(=O)N[C@@H](CC(=O)O)C(=O)N[C@@H](Cc1ccccc1)C(=O)N1CCC(CC(=O)O)CC1 [1190.02], the “Relative Potency” value falls from 998 to 591.

Compared with CC(C)C[C@H](NC(=O)Cc1ccccc1)C(=O)N[C@@H](CC(=O)O)C(=O)N[C@@H](Cc1ccc(O)cc1)C(=O)N1CCC[C@H]1C(N)=O [1036.01] (PhAc-LDYP-NH2), CC(C)C[C@@H](C(=O)N[C@@H](CC(=O)O)C(=O)N[C@@H](Cc1ccccc1)C(=O)N1CCC[C@@H]1C(N)=O)N(C)C(=O)Cc1ccccc1 [1190.07] (PhAc-[NMeL]DF[dP]-NH2) is lower in “Relative Potency” value: 405 for the first, 318 for the second.

First: CC(C)C[C@H](NC(=O)Cc1ccccc1)C(=O)N[C@@H](CC(=O)O)C(=O)NC1CCCCNC1=O (some centres unmarked) [1043.02]
Second: CC(C)C[C@H](NC(=O)Cc1ccccc1)C(=O)N[C@@H](CC(=O)O)C(=O)NC1(C(=O)N2CCC[C@@H]2C(N)=O)CCc2ccccc2C1 (some centres unmarked) [896.65] (PhAc-LD[ξAtc][dP]-NH2)
The “Relative Potency” value of the first is higher: 26.8 for the first, 1.25 for the second.

CC(C)C[C@H](NC(=O)Cc1ccccc1)C(=O)N[C@@H](CS(N)(=O)=O)C(=O)N[C@@H](Cc1ccccc1)C(=O)N1CCCCC1 [1026.08] and CC(C)C[C@@H](CN[C@@H](CC(=O)O)C(=O)N[C@@H](Cc1ccccc1)C(=O)N1CCCCC1)NC(=O)Cc1ccccc1 [1041.01] are the same in “Relative Potency” value: 0 for the first, 0 for the second.

Compared with CC(C)C[C@H](NC(=O)Cc1ccccc1)C(=O)N[C@@H](CC(=O)O)C(=O)N[C@@H](Cc1ccccc1)C(=O)NN1CCOCC1 [1111.10], CC(C)C[C@H](NC(=O)Cc1ccccc1)C(=O)N[C@@H](CC(=O)O)C(=O)N[C@@H](Cc1ccccc1)C(=O)N1CCC(C(=O)O)CC1 [1111.04] (PhAc-LDF[Inp]-OH) is higher in “Relative Potency” value: 98.9 for the first, 836 for the second.

Compared with CC(C)C[C@H](NC(=O)Cc1ccccc1)C(=O)N[C@@H](CC(=O)O)C(=O)NC(c1ccccc1)c1ccccc1 [997.01], NC(=O)[C@H]1CCCN1C(=O)[C@H](Cc1ccccc1)NC(=O)[C@H](CC(=O)O)NC(=O)CCCCC1CCSS1 (some centres unmarked) [1056.09] is lower in “Relative Potency” value: 2.66 for the first, 1.1 for the second.

For CC(=O)N[C@@H](CC(C)C)C(=O)N[C@@H](CC(=O)O)C(=O)N[C@H](C(N)=O)C(C)C [926.30] (Ac-Leu-Asp-Val-NH2), the “Relative Potency” value was “.63”.
In the case of CC(C)C[C@H](NC(=O)Cc1ccccc1)C(=O)N[C@@H](CC(=O)O)C(=O)N1C(=O)N(Cc2ccccc2)C(=O)[C@@H]1Cc1ccccc1 [1047.08], the “Relative Potency” value is reported as “.38”.

Same assay, conditions: relative to SEQ ID NO:3 = 1; potency before the prodrug compound is enzymatically converted to an active form

In the case of CC(C)C[C@H](NC(=O)Cc1ccccc1)C(=O)N[C@@H](CC(=O)OCC(=O)OCc1ccccc1)C(=O)N[C@@H](Cc1ccccc1)C(=O)N1CCC[C@@H]1C(N)=O [1067.01] (PhAc-LD(X7)F[dP]-NH2), the “Relative Potency (prodrug compound)” value is reported as “.97”.

CC(C)C[C@H](NC(=O)Cc1ccccc1)C(=O)N[C@@H](CC(=O)OCc1ccccc1)C(=O)N[C@@H](Cc1ccccc1)C(=O)N1CCC[C@@H]1C(N)=O [1068.07] (PhAc-LD(OBn)F[dP]-NH2) and CCN(CC)C(=O)COC(=O)C[C@H](NC(=O)[C@H](CC(C)C)NC(=O)Cc1ccccc1)C(=O)N[C@@H](Cc1ccccc1)C(=O)N1CCC[C@@H]1C(N)=O [1068.13] (PhAc-LD(X4)F[dP]-NH2) are the same in “Relative Potency (prodrug compound)” value: 0 for the first, 0 for the second.
